In patent publication US11083723B2, “Use of roluperidone to treat negative symptoms and disorders, increase neuroplasticity, and promote neuroprotection” (Minerva Neurosciences, Inc., priority 2018, dated 2021):
Where a name gives a salt, the structure may show the parent alone.

How the values were obtained:
cholinergic receptors = assay: Receptor affinity, cholinergic; assay type: binding
histaminergic receptors = assay: Receptor affinity, histaminergic; assay type: binding
[1] = tested on: BDNF release by primary hippocampal neurons; assay: BDNF release by primary hippocampal neurons, in situ ELISA; assay type: cell-based, rat; settings: 3 days incubation
Protocol: Hippocampal neurons were plated in 96-well Nunc MaxiSorp surface polystyrene flat-bottom immunoplate precoated with poly-D-lysine during 30 min an anti-BDNF monoclonal antibody overnight at 4° C. at a density of 70,000 cells/well. […] At the end of drug treatment, cells were carefully washed with TBST (20 mM Tris-HCl (pH 7.6), 150 mM NaCl, and 0.05% (vol/vol) Tween 20). The plate was then incubated with the polyclonal anti-human BDNF antibody overnight and BDNF quantified.
Experimental Protocol—In Situ ELISA on Primary Hippocampal Neurons Hippocampal Neuron Culture
Newborn rats (Wistar rats, Janvier) were deeply anesthetized by hypothermia and decapitated. […] Cells were mechanically dissociated by 3 passages through a 10 ml pipette. Cells were then centrifuged at 515×g for 10 min at 4° C. […] Viable cells were counted in a Neubauer cytometer using the trypan blue exclusion test.
Hippocampal neurons were plated in 96-well Nunc MaxiSorp surface polystyrene flat-bottom immunoplate precoated with poly-D-lysine during 30 min (Sigma, Ref: P7886, batch: SLBS8705) an anti-BDNF monoclonal antibody overnight at 4° C. at a density of 70000 cells/well.
At the end of drug treatment, cells were carefully washed with TBST (20 mM Tris-HCl (pH 7.6), 150 mM NaCl, and 0.05% (vol/vol) Tween 20). The plate was then incubated with the polyclonal anti-human BDNF antibody overnight. The amount of specifically bound polyclonal antibody was then detected through the use of the anti-IgY-horseradish peroxidase tertiary antibody, which when exposed to the chromogenic substrate (TMB reagent; Promega), changes color in proportion to the amount of BDNF present in the sample. The color intensity was quantified by measuring the absorbance at 450 nm.

[2] = modified release (MR) formulation of Compound (I) that reduces QT prolongation; cited from earlier work
[3] = tested on: negative symptoms in schizophrenia; assay: Phase 2b clinical study, negative symptoms in schizophrenia; assay type: in vivo, human; settings: both tested doses (32 mg and 64 mg)
muscarinic receptors = assay: Receptor affinity, muscarinic; assay type: binding
5-HT2A receptors = 5-HT2A receptors (Homo sapiens, UniProt P28223); assay: Molecular binding profile, 5-HT2A
[4] = tested on: BDNF expression by astrocytes; assay: BDNF expression by astrocytes, qPCR; assay type: cell-based, rat; settings: for BDNF expression astrocytes, % increase of control conditions: 5 days incubation; for BDNF expression by astrocytes, fold change (Fc) compared to control condition: 5 days
Protocol: For analysis of BDNF expression by real-time quantitative polymerase chain reaction (qPCR), astrocytes were seeded in 24 well-plates pre-coated with poly-D-lysine. After 1 day of culture, fresh serum free medium containing compounds was added during 5 days at 37° C. At the end of the incubation time total RNA content were extracted and reverse transcription was performed. Expression levels were calculated using the ΔCt method where the expression level of the mRNA of interest is given by 2-ΔCT with ΔCT=CT target mRNA−CT reference mRNA (Gapdh), in the same sample.
Rat Primary Culture of Astrocytes—rat mixed glial cells were cultured as described by McCarthy et al., 1980. Primary rat glial cells were prepared from the cortical of newborn Wistar rats (1 day). Briefly, meninges and blood vessels of the mice cortex were removed and placed in ice-cold medium of Leibovitz (L15; PanBiotech, ref P04-27055, batch 4511117) containing 2% of Penicillin-Streptomycin (PS; PanBiotech, ref P06-07100, batch 2110917) and 1% of bovine serum albumin (BSA; PanBiotech, ref P06-1391100, batch H171006). Tissues were dissociated with 0.25% trypsin-EDTA (PanBiotech, ref P10-023100, batch 8970318) at 37° C. for 10 min. Cells were then submitted to a supplementary incubation of 15 min at 37° C. in presence of deoxyribonuclease I (0.1 mg/ml Panbiotech, ref: P60-37780100, batch: H170706). Cells were then pelleted (5 min at 1200 rpm) and trypsinization was stopped by adding DMEM (Panbiotech, Ref P04-03600, Batch 5181217) supplemented with 10% FCS (Fischer, Ref 10270106, batch 42G2068K), 1 mM of Na/pyruvate (PanBiotech, ref: P04-43100, batch: 3470914) and 2% PS. Cells suspension was mechanically dissociated and filtered through 40 μm diameter nylon meshes (BD Falcon, Ref: 352340). The cells were collected by centrifugation at 1200 rpm/min for 10 min, re-suspended in culture medium and then plated in culture flasks (Dutscher, ref: 690175). Cells were seeded at a density of 1.25×10^5 cells/cm^2 and cultured in 5% CO2 at 37° C. Medium was changed three times per week.
Analysis of BDNF expression by real-time quantitative polymerase chain reaction (PCR): astrocytes were seeded in 24 well-plates pre-coated with poly-D-lysine (Sigma, ref P7886, batch: SLBQ9797V). After 1 day of culture, fresh serum free medium containing compounds was added during 5 days at 37° C. At the end of the incubation time, medium was removed and total RNA content were extracted using kit nucleo spin RNS XS (Macherey Nagel; 20 μL/well). 6 wells/condition were done. RNA concentration was determined using a Nanodrop 2000 spectrophotometer (Life Technologies ThermoFisher Scientific, Villebon sur Yvette, France).
Reverse transcription was performed on 500 ng of RNA using the high capacity RNA-to-cDNA mix (Applied Biotechnologies). qPCR was performed on 12.5 ng of cDNA using the following primers, purchased from Applied Biotechnology.
For qPCR reactions, the kit TaqMan™ Fast Universal PCR Master Mix (2×) was used. The following volumes were used: mix: 10 uL, enzyme: 4 uL, oligo: 1 uL each, cDNA: 5 uL (12,5 ng). For the comparisons between various compounds and concentrations, expression levels were calculated using the ΔCt method where the expression level of the mRNA of interest is given by 2-ΔCT with ΔCT=CT target mRNA−CT reference mRNA (Gapdh), in the same sample. For the cultures treated with GA or the unknown compound, relative expression levels were determined according to the ΔΔCt method where the expression level of the mRNA of interest is given by 2-ΔΔCT where ΔΔCT=ΔCt for treated cultures−ΔCt for untreated cultures.

QT prolongation = settings: patients treated with Compound (I); related to plasma levels of Compound (I) and metabolite BFB-520; cited from earlier work

Sequence of 5-HT2A receptors (P28223 whole entry): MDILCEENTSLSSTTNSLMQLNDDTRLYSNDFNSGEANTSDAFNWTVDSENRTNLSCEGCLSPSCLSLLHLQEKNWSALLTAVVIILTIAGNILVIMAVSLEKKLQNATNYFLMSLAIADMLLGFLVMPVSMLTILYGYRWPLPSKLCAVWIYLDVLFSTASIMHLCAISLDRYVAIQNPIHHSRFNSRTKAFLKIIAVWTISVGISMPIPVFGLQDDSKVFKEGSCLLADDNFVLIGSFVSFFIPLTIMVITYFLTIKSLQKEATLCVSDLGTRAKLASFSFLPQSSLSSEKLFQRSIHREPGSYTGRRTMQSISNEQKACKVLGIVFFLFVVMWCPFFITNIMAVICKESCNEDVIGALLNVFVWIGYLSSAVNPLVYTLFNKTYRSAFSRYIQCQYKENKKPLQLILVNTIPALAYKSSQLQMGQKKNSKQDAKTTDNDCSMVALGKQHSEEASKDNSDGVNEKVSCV

Structure (SMILES): O=C(CN1CCC(CN2Cc3ccccc3C2=O)CC1)c1ccc(F)cc1 [Compound (I), 1H-Isoindol-1-one, 2-[[1-[2-(4-Fluorophenyl)-2-oxoethyl]-4-piperidinyl]methyl]-2,3-dihydro-, hydrochloride, hydrate (1:1:2)]
- affinity for cholinergic receptors (cholinergic receptors): no affinity
- affinity for histaminergic receptors (histaminergic receptors): no affinity
- BDNF release hippocampal neurons, % increase of control conditions ([1]; 30 nM): 11.0%
- BDNF release hippocampal neurons, % increase of control conditions ([1]; 100 nM): 14.9%
- BDNF release hippocampal neurons, % increase of control conditions ([1]; 300 nM): 27.5%
- BDNF release hippocampal neurons, % increase of control conditions ([1]; 1 μM): 24.3%
- maximum plasma concentration (Cmax) [2]: below 80 ng/mL
- benefit over placebo in improving negative symptoms in schizophrenia [3]: statistically significant benefit
- affinity for muscarinic receptors (muscarinic receptors): no affinity
- Ki (5-HT2A receptors): 7.5 nM
- BDNF expression astrocytes, % increase of control conditions ([4]; 0.3 nM): 26%
- BDNF expression astrocytes, % increase of control conditions ([4]; 1 nM): 55%
- BDNF expression by astrocytes, fold change (Fc) compared to control condition ([4]; 1 nM, p<0.05): 1.55
- BDNF expression astrocytes, % increase of control conditions ([4]; 3 nM): 81%
- BDNF expression by astrocytes, fold change (Fc) compared to control condition ([4]; 3 nM, p<0.001): 1.81
- BDNF expression astrocytes, % increase of control conditions ([4]; 10 nM): 71%
- BDNF expression by astrocytes, fold change (Fc) compared to control condition ([4]; 10 nM, p<0.01): 1.71
- BDNF expression astrocytes, % increase of control conditions ([4]; 30 nM): 31%
- BDNF expression astrocytes, % increase of control conditions ([4]; 100 nM): 5%
- QT prolongation in patients (QT prolongation): QT prolongation in patients treated with Compound (I) has been observed
